Data on 19 compounds can be found in patent US5877204A, “Compounds containing a michael-acceptor, especially maleimide or maleic acid derivatives, directly or indirectly linked to a chromophore and their use in long lasting sunscreen compositions” (Vanguard Medica Limited, priority 1994, dated 1999).

Each structure is given as a SMILES string. Where “and” joins values, the source holds several entries; their conditions need not be identical. Equal values may be shown once. Read-outs that look alike come from different tables or passages of the source.

Series [1] can be described thus: Ames tests (mutagenicity and toxicity), with or without rat liver metabolic activation system S9. In kind it is cell-based. The text has this:
Among the important criteria for topically applied sunscreens, safety in use has the highest priority. It was thus necessary to investigate the mutagenicity of the maleimide and maleamic acid derivatives of sunscreens. Six compounds of the present invention were chosen as representative of the main classes of sunscreen and submitted for Ames tests.

Series [2] is described as follows: Reaction of maleimide derivatives with L-cysteine ethyl ester (tlc). To be noted: room temperature. The protocol:
In order to underpin the principle of reaction of maleimido derivatives with the cysteine thiol groups, two model reactions were studied. Thus the reactions between L-cysteine ethyl ester and N-phenylmaleimide and N-(4-benzoylphenyl)maleimide were carried out. In each case, the reaction produced the diastereoisomeric product mixtures in reasonable yields at room temperature. All starting maleimides had reacted within 30 minutes (tlc). The two products were isolated and characterised.
The mildness and rapidity of these reactions indicate that the maleimido groups confer the ability for reaction with the nucleophilic groups of keratin.

Series [3] is described as follows: UV absorption of the chromophore (λmax, ε). Conditions: for ε: at λmax, in M-1·cm-1 (unit assumed). The series is classed as physicochemical. On the set-up: key to λmax: λmax in nm. The text has this: This can sometimes be a problem since if the change in λmax is too great, the chromophore may no longer absorb light in the UVA or UVB wavelength range.
An example of this change is 4-aminobenzophenone which has a λmax of 318 nm which is in the UVB range. When the amino group is replaced by a maleamic acid group, the λmax of the chromophore shifts to 306 nm which is still within the UVB range but when the amino group is replaced by a maleimide residue, the λmax falls to 258 nm. This is outside the range of UVB although there is a restoration of UVB activity when the maleimide is reacted with cysteine as it would be when applied to the skin (λmax=293 nm). The changes are easily rationalised on the basis of conjugative effects but the effects of attaching Michael acceptors to the various chromophores which may be used cannot always easily be predicted. This problem can be overcome to a large extent simply by separating the chromophore from the Michael acceptor using a spacer. Particularly useful compounds therefore include those in which the group R is C1 -C8 alkyl-YZ, C2 -C8 alkenyl-YZ or C2 -C8 alkynyl-YZR and especially those in which Y is O. Compounds in which a hexyloxy linker is used (that is, R is (CH2)6 OZ) are especially preferred.

For series [4] the following is noted: background, known sunscreen absorbers; cited from earlier work.
The test system of another series is horn hoof keratin. Put plainly: Substantivity test with powdered horn-hoof keratin (uv absorptivity). In kind it is binding, various animals. The text has this:
Keratin prepared from the horns and hooves of various animals is commercially available, and this was used in a similar way to the hair (above). The keratin was finely powdered and stirred with a solution of the maleimido compound and its substantivity estimated by uv absorptivity measurements.

The next series deals with hair keratin. Put plainly: Substantivity test with human hair (uv assay of supernatant). The series is classed as binding. The protocol:
Initial tests were conducted with human hair specially cleaned and prepared to provide as near to a standard substrate as possible. The method adopted utilised the reduction in ultra-violet absorptivity in the supernatant solution in contact with hair when the compound under test was absorbed into the hair surface. Standard and control solutions were employed. […] Similar tests with hair have been quoted in the patent literature as evidence, and as a standard test, for substantivity of sunscreens and other cosmetics.

The subject of a further series is DNA. To be noted: cited from earlier work.
Where [5] appears, read: effect of attaching Michael acceptor to 4-aminobenzophenone chromophore.
The mark [6] stands for this setting: characterisation in the Examples, solvent not stated.
The mark [7] stands for this setting: 1.0000 g horn hoof keratin, single tests (0.4360 g and 0.4741 g maleimide added).
[8] abbreviates: horn hoof keratin, average of the two tests.
Setting [9] is: uv assay, 1.0000 g hair, single tests (0.4520 g and 0.4670 g maleimide added).

Turning to `O=C(c1ccccc1)c1ccc(N2C(=O)C=CC2=O)cc1` [Example 4, N-(4-benzoylphenyl)maleimide], the figures for the Toxicity in series [1] (+S9) and in series [1] (-S9) were 100 μG plate^-1 and 40 μG plate^-1, respectively. Further, the “time within which all starting maleimide had reacted” value in series [2] was not above 30 min. Besides, in series [3] (setting [5]), the λmax is 258 nm.

In turn, `O=C(c1ccccc1)c1ccc(OCCCCCCN2C(=O)C=CC2=O)cc1` [Example 12, N-[6-(4-benzoylphenoxy)-hexyl]-maleimide] registered a Toxicity in series [1] (+S9) of 800 μG plate^-1. For the same compound, the Toxicity in series [1] (-S9) is given as 200 μG plate^-1. In addition, in series [3] (CH2 Cl2), the λmax is 286 nm and the ε came to 16590.

For the compound `CCCCC(CC)COC(=O)C=Cc1ccc(OC)cc1` (centres unmarked) [2-ethylhexyl-4'-methoxycinnamate], the λmax in series [4] is given as 308 nm.

As to `O=C(O)/C=C\C(=O)NCCCCCCOc1ccc(C(=O)c2ccccc2)cc1` [Example 11, N-[6-(4-benzoylphenoxy)-hexyl]-maleamic Acid], the Toxicity in series [1] (+S9) was found to be 2500 μG plate^-1. In addition, in series [1] (-S9), the Toxicity was found to be 2500 μG plate^-1. In series [3] (CH2 Cl2), this compound came in with a λmax of 285 nm and a ε of 16047.

Take `O=C(O)/C=C\C(=O)Nc1ccc(C(=O)c2ccccc2)cc1` [Example 3, N-(4-benzoylphenyl)maleamic Acid]: the Toxicity in series [1] (+S9) and in series [1] (-S9) was 2500 μG plate^-1 in each case. Besides, in series [1] (Ames test, with or without S9), the Mutagenicity result was “Negative”. This compound showed a ε in series [3] (solvent not stated) of 20560. For the same compound, the λmax in series [3] (setting [6]) and in series [3] (setting [5]) was 306 nm in each case.

Consider `Nc1ccc(C(=O)c2ccccc2)cc1` [4-aminobenzophenone, reference compound], for which the λmax in series [3] (setting [5]) is 318 nm.

`O=C1C=CC(=O)N1c1ccccc1` [N-phenylmaleimide]: in the series on horn hoof keratin (setting [7]), the Substantivity is 22.2% and 21.1%; the Wt maleimide absorbed is 0.0968 g and 0.1001 g. In the series with horn hoof keratin (setting [8]), the Average substantivity stood at 21.7% and the “Average wt maleimide absorbed” value is reported as 0.0985 g. The “time within which all starting maleimide had reacted” value in series [2] is not above 30 min. Also, in the series with hair keratin (hair, average of the two tests), the Average substantivity turned out to be 24.5% and the “Average wt maleimide absorbed” value is 0.1129 g. For the same compound, the “reduction in ultra-violet absorptivity of supernatant in contact with hair” value in the series with hair keratin (initial tests, in words) is on record as “considerable reduction in absorptivity”. In the series on hair keratin (setting [9]), the Substantivity is 18.5% and 30.4%; the Wt maleimide absorbed is 0.0837 g and 0.1421 g.

Regarding `COc1c2ccoc2cc2oc(=O)ccc12` [5-methoxypsoralen (5-MOP), 5-methoxypsoralen], in the series on DNA, the “photobinding to DNA” value is given as “photobinds to DNA”, the photocarcinogenicity result was “photocarcinogen” and the photomutagenicity entry was “photomutagen”.

`NC(CSC1CC(=O)N(c2ccc(C(=O)c3ccccc3)cc2)C1=O)C(=O)O` (centres unmarked) [maleimide reacted with cysteine] yielded a λmax in series [3] (setting [5]) of 293 nm.

Consider `COc1ccc(C(=O)CC(=O)c2ccc(C(C)(C)C)cc2)cc1` [4-^t butyl-4'-methoxydibenzoylmethane], for which the λmax in series [4] is recorded as 355 nm.

As to `COC(=O)c1ccc(NC(=O)/C=C\C(=O)O)cc1` [Example 7, N-(4-methoxycarbonylphenyl)maleamic Acid], in series [3] (solvent not stated), the ε is listed as 16013. The same compound came in with a λmax in series [3] (setting [6]) of 294 nm.

In turn, `CCCCOC(=O)c1ccc(NC(=O)/C=C\C(=O)O)cc1` [Example 9, N-(4-n-butyloxycarbonylphenyl)maleamic Acid] displayed a ε in series [3] (solvent not stated) of 15806. Also, the λmax in series [3] (setting [6]) is reported as 294 nm.

For `O=C(O)c1ccc(N2C(=O)C=CC2=O)cc1` [Example 2, N-(4-carboxyphenyl)maleimide], the Toxicity in series [1] (+S9) and in series [1] (-S9) was 500 μG plate^-1 in each case.

On to `CCN1C(=O)C=CC1=O`, for which the Toxicity is 50 μG plate^-1 in series [1] (+S9) and 25 μG plate^-1 in series [1] (-S9).

For the compound `O=C(O)/C=C\C(=O)Nc1ccc(/C=C/C(=O)O)cc1` [Example 5, N-[4-(2-carboxy-(E)-ethenyl)phenyl]maleamic Acid], the Toxicity in series [1] (+S9) and in series [1] (-S9) was 5000 μG plate^-1 in each case.

As for `O=C(O)/C=C/c1ccc(N2C(=O)C=CC2=O)cc1` [Example 6, N-[4-(2-carboxy-(E)-ethenyl)phenyl]maleimide], the Toxicity in series [1] (+S9) and in series [1] (-S9) was 200 μG plate^-1 throughout.

In the case of `O=C(O)/C=C\C(=O)Nc1ccc(C(=O)O)cc1` [Example 1, N-(4-carboxyphenyl)maleamic Acid], the Toxicity in series [1] (+S9) and in series [1] (-S9) was 5000 μG plate^-1 in each case.

Compound `COC(=O)c1ccc(N2C(=O)C=CC2=O)cc1` [Example 8, N-(4-methoxycarbonylphenyl)maleimide] had a ε in series [3] (solvent not stated) of 15844. In series [3] (setting [6]), this compound displayed a λmax of 245 nm.

Compound `CCCCOC(=O)c1ccc(N2C(=O)C=CC2=O)cc1` [Example 10, N-(4-n-butyloxycarbonylphenyl)maleimide] came in with a ε in series [3] (solvent not stated) of 15563. The compound further returned a λmax in series [3] (characterisation in Example 10, unit not given) of 245.
